The values that follow come from publication PMC11372076, “A dual inhibitor of PIP5K1C and PIKfyve prevents SARS-CoV-2 entry into cells” (Experimental & Molecular Medicine, 2024).

The target of data set [1] is T1, PIKFYVE (Homo sapiens, UniProt Q9Y2I7). Briefly: SelectScreen Kinase Profiling Service (PIPK profiling). The class given is biochemical. The following applies: [ATP] 100 μM; 1 μM (concentration stated for UNI418 only). The source says:
UNI418 has a core structure consisting of 4-quinazolinamine (Fig. 1a, green), which is often found in kinase inhibitors. […] The phosphoinositide (PI) system is a crucial regulatory mechanism in membrane trafficking and is tightly regulated through phosphorylation cascades by multiple phosphatidylinositol phosphate kinases (PIPKs)[30]. We hypothesized that UNI418 may inhibit PIPK(s) and performed PIPK profiling analysis. […] To test whether UNI418 interacts with PIP5K1C and PIKfyve, we performed a CETSA, which determines the characteristics of protein stabilization upon ligand binding to the target protein[31]. UNI418- or DMSO-treated cell lysates were incubated at different temperatures, and the presence of the target protein in the soluble fraction was analyzed by Western blotting (Fig. 1c).
Fig. 1 UNI418 specifically targets PIP5K1 and PIKfyve. a Chemical structure of UNI418. The 4-quinazolinamine core is highlighted in green. b Table of the kinase profiling analysis. Inhibition of several kinases was determined at a 1 μM concentration of UNI418 and analyzed by the SelectScreen Kinase Profiling Service (Thermo Fisher Scientific). c Cellular thermal shift assay. Ectopically expressed GFP-PIP5K1C and GFP-PIKfyve were heated to the indicated temperatures with/without UNI418, and the presence of protein in the soluble fraction was analyzed by Western blot analysis. TEXT PRINTED IN THE PICTURE: (b) UNI418: % Inhibition (mean): 11 ([ATP] Tested (μM): 10; Kinase Tested: PI4K2A (PI4K2 alpha)); % Inhibition (mean): 4 ([ATP] Tested (μM): 10; Kinase Tested: PI4K2B (PI4K2 beta)); % Inhibition (mean): -6 ([ATP] Tested (μM): 10; Kinase Tested: PI4KA (PI4K alpha)); % Inhibition (mean): 48 ([ATP] Tested (μM): Km app; Kinase Tested: PI4KB (PI4K beta)); % Inhibition (mean): 20 ([ATP] Tested (μM): 10; Kinase Tested: PIK3C2B (PI3K-C2 beta)); % Inhibition (mean): 22 ([ATP] Tested (μM): 10; Kinase Tested: PIK3C2G (PI3K-C2 gamma)); % Inhibition (mean): 4 ([ATP] Tested (μM): 100; Kinase Tested: PIK3C3 (hVPS34)); % Inhibition (mean): 8 ([ATP] Tested (μM): 10; Kinase Tested: PIK3CA/PIK3R3 (p110 alpha/p55 gamma)); % Inhibition (mean): 7 ([ATP] Tested (μM): 10; Kinase Tested: PIK3CB/PIK3R2 (p110 beta/p85 beta)); % Inhibition (mean): 9 ([ATP] Tested (μM): 10; Kinase Tested: PIP4K2A); % Inhibition (mean): 67 ([ATP] Tested (μM): 10; Kinase Tested: PIP5K1A); % Inhibition (mean): 93 ([ATP] Tested (μM): 10; Kinase Tested: PIP5K1B); % Inhibition (mean): 93 ([ATP] Tested (μM): 10; Kinase Tested: PIP5K1C); % Inhibition (mean): 100 ([ATP] Tested (μM): 100; Kinase Tested: PIKFYVE) | (b) Apilimod: % Inhibition (mean): 100 ([ATP] Tested (μM): 100; Kinase Tested: PIKFYVE) […]

Data set [2] has as its target T1, PIKFYVE. Description: Eurofins kinase assay service (Kd). In kind it is binding. As to the method:
Supplementary Fig. 2 UNI418 inhibits PIP5K1B/C and PIKfyve. a Inhibition graph of PIP5K1 kinases at the 10 point titration with UNI418. IC 50 value of PIP5K1 kinases was analyzed by Thermo Fisher Scientific’s SelectScreen kinase profiling service. b Kd (nM) values of PIP5K1C and PIKfyve inhibition were determined using the Eurofins kinase assay service.
(1 picture or pasted object on this page, not shown here)

The test system of another data set is VSV-G-pseudotyped virus. In kind it is cell-based.
In another data set the test system is GFP-PIKfyve. Briefly: Cellular thermal shift assay (CETSA). In kind it is cell-based. As to conditions: versus DMSO control, Western blot. The protocol: (§1) The chemically treated cells were heated to 56 °C for 3 min to denature and precipitate nontargeted proteins. The heated cells were immediately snap-frozen in liquid nitrogen overnight. After the cells were frozen and thawed twice, the tubes were briefly vortexed. The resulting cell lysates were subjected to SDS‒PAGE.
(§2) Fig. 1 UNI418 specifically targets PIP5K1 and PIKfyve. a Chemical structure of UNI418. The 4-quinazolinamine core is highlighted in green. b Table of the kinase profiling analysis. Inhibition of several kinases was determined at a 1 μM concentration of UNI418 and analyzed by the SelectScreen Kinase Profiling Service (Thermo Fisher Scientific). c Cellular thermal shift assay. Ectopically expressed GFP-PIP5K1C and GFP-PIKfyve were heated to the indicated temperatures with/without UNI418, and the presence of protein in the soluble fraction was analyzed by Western blot analysis. […]
In general terms: Immunoblotting shows a protein as a band on a membrane.

The subject of a further data set is GFP-PIP5K1C. Description: Cellular thermal shift assay (CETSA). In kind it is cell-based. The following applies: versus DMSO control, Western blot. The protocol:
as §1, §2

T1 sequence (Q9Y2I7 whole entry): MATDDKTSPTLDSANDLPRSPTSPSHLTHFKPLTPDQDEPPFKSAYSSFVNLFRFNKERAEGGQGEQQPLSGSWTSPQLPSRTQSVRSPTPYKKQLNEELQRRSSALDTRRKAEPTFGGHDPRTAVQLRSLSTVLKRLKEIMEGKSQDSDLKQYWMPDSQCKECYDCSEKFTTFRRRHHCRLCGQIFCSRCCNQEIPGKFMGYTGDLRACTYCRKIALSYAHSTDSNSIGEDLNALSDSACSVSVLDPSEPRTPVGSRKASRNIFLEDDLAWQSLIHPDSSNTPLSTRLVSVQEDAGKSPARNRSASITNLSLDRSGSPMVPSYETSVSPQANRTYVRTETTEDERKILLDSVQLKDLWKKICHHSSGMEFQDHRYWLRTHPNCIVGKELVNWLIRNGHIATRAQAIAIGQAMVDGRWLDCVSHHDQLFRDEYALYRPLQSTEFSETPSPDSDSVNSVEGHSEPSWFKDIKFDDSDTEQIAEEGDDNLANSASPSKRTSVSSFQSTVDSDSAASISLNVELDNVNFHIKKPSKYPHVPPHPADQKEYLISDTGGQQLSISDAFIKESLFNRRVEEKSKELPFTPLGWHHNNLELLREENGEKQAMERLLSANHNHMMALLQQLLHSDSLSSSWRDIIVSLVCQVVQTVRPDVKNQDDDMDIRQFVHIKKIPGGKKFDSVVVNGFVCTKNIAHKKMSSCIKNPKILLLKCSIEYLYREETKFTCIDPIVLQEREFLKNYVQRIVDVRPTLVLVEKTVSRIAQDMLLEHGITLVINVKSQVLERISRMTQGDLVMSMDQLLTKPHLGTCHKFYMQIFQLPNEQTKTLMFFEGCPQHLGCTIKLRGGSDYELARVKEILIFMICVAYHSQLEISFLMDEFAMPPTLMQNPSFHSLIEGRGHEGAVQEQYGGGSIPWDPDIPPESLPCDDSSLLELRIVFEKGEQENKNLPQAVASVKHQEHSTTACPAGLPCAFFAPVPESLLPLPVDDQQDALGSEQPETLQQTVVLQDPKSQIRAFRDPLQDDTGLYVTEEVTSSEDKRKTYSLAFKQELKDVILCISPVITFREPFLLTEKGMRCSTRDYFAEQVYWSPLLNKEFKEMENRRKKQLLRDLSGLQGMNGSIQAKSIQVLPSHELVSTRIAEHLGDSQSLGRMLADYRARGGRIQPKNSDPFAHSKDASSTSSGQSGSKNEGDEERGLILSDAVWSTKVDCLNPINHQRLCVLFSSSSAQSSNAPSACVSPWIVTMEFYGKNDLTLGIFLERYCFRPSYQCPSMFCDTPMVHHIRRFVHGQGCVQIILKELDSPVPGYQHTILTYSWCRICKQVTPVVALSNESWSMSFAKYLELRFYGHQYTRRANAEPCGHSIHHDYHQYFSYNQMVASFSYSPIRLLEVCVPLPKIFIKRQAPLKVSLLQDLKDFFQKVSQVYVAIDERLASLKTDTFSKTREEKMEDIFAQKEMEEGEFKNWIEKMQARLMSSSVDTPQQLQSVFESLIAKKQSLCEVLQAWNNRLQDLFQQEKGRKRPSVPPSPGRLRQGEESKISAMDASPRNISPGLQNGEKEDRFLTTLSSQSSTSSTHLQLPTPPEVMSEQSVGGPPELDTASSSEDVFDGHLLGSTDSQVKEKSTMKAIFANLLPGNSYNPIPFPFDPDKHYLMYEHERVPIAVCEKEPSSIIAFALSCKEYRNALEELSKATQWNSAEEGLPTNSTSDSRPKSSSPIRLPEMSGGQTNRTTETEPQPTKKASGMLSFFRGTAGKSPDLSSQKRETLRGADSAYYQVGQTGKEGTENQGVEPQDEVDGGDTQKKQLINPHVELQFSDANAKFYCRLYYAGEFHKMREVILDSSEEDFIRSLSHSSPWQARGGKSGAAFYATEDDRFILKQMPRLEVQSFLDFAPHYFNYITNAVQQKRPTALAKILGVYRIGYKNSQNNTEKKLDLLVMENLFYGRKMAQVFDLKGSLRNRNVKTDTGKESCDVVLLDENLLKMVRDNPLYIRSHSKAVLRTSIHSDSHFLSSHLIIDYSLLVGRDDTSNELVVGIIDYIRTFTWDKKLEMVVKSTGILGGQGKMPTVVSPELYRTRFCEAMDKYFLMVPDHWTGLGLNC

As a reminder, the inhibition is how much of the control response was suppressed. A low value points to a weak effect. Usually Kd stands for the equilibrium constant for the complex coming apart. Read a high Kd as lower affinity. `c1ccc(-c2cc(Nc3nc(-c4ccncc4)nc4ccccc34)n[nH]2)cc1` [UNI418, N -(5-phenyl-1 H -pyrazol-3-yl)-2-(4-pyridinyl)-4-quinazolinamine] gave an inhibition at 1 µM on PIKFYVE [1] of 100%. Moreover, the affinity at PIKFYVE [2], expressed as Kd, was 0.78 nM. In the data set on VSV-G-pseudotyped virus, the pseudotyped virus entry result is listed as “unaffected”. The “thermal stabilization of target protein in soluble fraction” value in the data set on GFP-PIKfyve and in the data set on GFP-PIP5K1C was “more stable at higher temperatures” each time.

On PIKFYVE [1], `Cc1cccc(/C=N/Nc2cc(N3CCOCC3)nc(OCCc3ccccn3)n2)c1` [apilimod] registered an inhibition at 1 µM of 100%.
